pIC50: −log10 of the molar value. Structures can show the parent of a compound that is named as a salt.
Legend:
[1] = tested on: MM.1S multiple myeloma cell line; assay: CellTiter 96 AQueous One Solution cell proliferation assay, MM.1S; format: cell-based; settings: Homo sapiens, MM1.S, 72 h of treatment, read-out: Cytotoxicity Assay
Description: The CellTiter 96® AQueous One Solution cell proliferation assay (Promega) was used on MM.1S multiple myeloma cell line to study the cytotoxic and cytostatic properties of the compounds. The assay is based on the cleavage of the tetrazolium salt, MTS, in the presence of an electron-coupling reagent PES (phenazine ethosulfate). The MTS tetrazolium compound is bioreduced by cells into a colored formazan product that is soluble in tissue culture medium. This conversion is presumably accomplished by NADPH or NADH produced by dehydrogenase enzymes in metabolically active cells. Assays are performed by adding a small amount of the CellTiter 96® AQueous One solution reagent directly to culture wells, incubating for 1-4 hours and then recording the absorbance at 490 nm with a 96-well plate reader.
(§1) The cells were seeded at 5×10^3 to 1.5×10^4 cells in each well of a 96-well plate in 100 μL of fresh culture medium and adherent cells were allowed to attach overnight. The stock solutions of the compounds were diluted in cell culture medium to obtain eight concentrations of each drug, ranging from 1 nM to 30 μM and DMSO at less than 1% v/v was used as a negative control. The resulting drug solutions were transferred onto the cells. After 72 h of treatment, 20 μl of CellTiter 96® AQueous reagent was added into each well of the 96-well assay plates and the plate was incubated at 37° C. for 1-4 hours in a humidified, 5% CO2 atmosphere. Then the absorbance of each well was recorded at 490 nm using a 96-well plate reader. In most cases, the assay was performed in triplicate and the results were presented as half maximal inhibitory concentration (IC50). Optical density versus compound concentration was plotted and analyzed using non-linear regression equations (IDBS XLfit) and the IC50 for each compound was calculated.

BT-549 = assay: Cell proliferation assay, BT-549; format: cell-based; settings: Homo sapiens; BT-549, type BaB, 72 h
Protocol: as §1, with “1.5×10^4 cells (depending on cell type) in each” for “1.5×10^4 cells in each”, “concentration (IC50).” for “concentration (IC50). Optical density versus compound concentration was plotted and analyzed using non-linear regression equations (IDBS XLfit) and the IC50 for each compound was calculated.”

HS578T = assay: Cell proliferation assay, HS578T; format: cell-based; settings: Homo sapiens, Hs-578T, type BaB, 72 h
Protocol: as §1, with “1.5×10^4 cells (depending on cell type) in each” for “1.5×10^4 cells in each”, “concentration (IC50).” for “concentration (IC50). Optical density versus compound concentration was plotted and analyzed using non-linear regression equations (IDBS XLfit) and the IC50 for each compound was calculated.”

HS578T cells = assay: Anti-apoptosis and cell cycle proteins immunoblot, HS578T; format: cell-based; settings: increasing concentrations, 24 hours
HCC-1428 = assay: Cell proliferation assay, HCC-1428; format: cell-based; settings: Homo sapiens, HCC1428; HCC-1428, type Lu, 72 h
Protocol: as §1, with “1.5×10^4 cells (depending on cell type) in each” for “1.5×10^4 cells in each”, “concentration (IC50).” for “concentration (IC50). Optical density versus compound concentration was plotted and analyzed using non-linear regression equations (IDBS XLfit) and the IC50 for each compound was calculated.”

MDA-MB-231 cells = assay: Long-term growth assay, MDA-MB-231; format: cell-based; settings: MDA-MB-231, 1 μM, 10 days, crystal violet
Description: At the end of the assay, media was removed from the cells and the remaining cells were stained with crystal violet.

MDA-MB-468 = assay: Cell proliferation assay, MDA-MB-468; format: cell-based; settings: Homo sapiens; MDA-MB-468, after 72 hours
Protocol: as §1, with “1.5×10^4 cells (depending on cell type) in each” for “1.5×10^4 cells in each”, “concentration (IC50).” for “concentration (IC50). Optical density versus compound concentration was plotted and analyzed using non-linear regression equations (IDBS XLfit) and the IC50 for each compound was calculated.”

UACC812 = assay: Cell proliferation assay, UACC812; format: cell-based; settings: Homo sapiens, UACC-812; UACC812, type Lu, 72 h
Protocol: as §1, with “1.5×10^4 cells (depending on cell type) in each” for “1.5×10^4 cells in each”, “concentration (IC50).” for “concentration (IC50). Optical density versus compound concentration was plotted and analyzed using non-linear regression equations (IDBS XLfit) and the IC50 for each compound was calculated.”

MDA-MB-157 = assay: Cell proliferation assay, MDA-MB-157; format: cell-based; settings: Homo sapiens; MDA-MB-157, type BaB, 72 h
Protocol: as §1, with “1.5×10^4 cells (depending on cell type) in each” for “1.5×10^4 cells in each”, “concentration (IC50).” for “concentration (IC50). Optical density versus compound concentration was plotted and analyzed using non-linear regression equations (IDBS XLfit) and the IC50 for each compound was calculated.”

[2] = tested on: antibody-induced male BALB/c arthritic mice; assay: Monoclonal-antibody induced arthritis (CAIA); format: in vivo; settings: 4, 7.5, 15 mg/kg PO, Day 4, 6, 8, 10
Protocol: The health status of the animals was examined on arrival. Only animals in good health were acclimatized to laboratory conditions and were used in the study. Animals were provided ad libitum a commercial rodent diet and free access to drinking water, supplied to each cage via polyethylene bottles with stainless steel sipper tubes. Automatically controlled environmental conditions were set to maintain temperature at 20-24° C. with relative humidity (RH) of 30-70%, a 12:12 hour light:dark cycle and 10-30 air changes/hr in the study room Temperature, RH and light cycle were monitored daily by the control computer. Animals were given a unique animal identification number and on Day 0 of the study each animal received a tail vein injection of antibody cocktail (200 uL of 10 mg/mL). The antibody cocktail was supplied by MD Biosciences (Catalog #: CIA-MAB-50). On day 3, post the single mAb administration, all animals were subjected to LPS (200 uL of 0.5 mg/mL) administration by a single intraperitoneal (IP) injection. […]
Animals found in a moribund condition, animals with broken skin on an arthritic paw, or with a greater than a 20% decrease in body weight and animals showing severe pain and enduring signs of severe distress were humanely euthanized. Severe pain or distress was assessed on a case by case basis by experienced animal technicians. […]

Compound | pIC50 [1] | pIC50 (BT-549) | pIC50 (HS578T) | MCL-1 protein level (HS578T cells) | pIC50 (HCC-1428) | long-term growth (MDA-MB-231 cells) | pIC50 (MDA-MB-468) | pIC50 (UACC812) | pIC50 (MDA-MB-157) | mean body weight (rate of weight gain) ([2]; compared to vehicle or dexamethasone) | mean total paw clinical arthritic score ([2]; compared with vehicle)
O=C(/C=C\n1cnc(-c2cc(C(F)(F)F)cc(C(F)(F)F)c2)n1)NNc1cnccn1 [Compound I-3, (Z)-3-(3-(3,5-bis(trifluoromethyl)phenyl)-1H-1,2,4-triazol-1-yl)-N′-(pyrazin-2-yl)acrylohydrazide] | ≥ 6.00 | 7.70 | 5.82 | a reduction in MCL-1 is observed | 4.98 | inhibited the long-term growth | 8.00 | 6.23 | 5.89 | – | –
O=C(/C=C\n1cnc(-c2cc(C(F)(F)F)cc(C(F)(F)F)c2)n1)NNc1ccccn1 [Compound I-4, (Z)-3-(3-(3,5-bis(trifluoromethyl)phenyl)-1H-1,2,4-triazol-1-yl)-N′-(pyridin-2-yl)acrylohydrazide hydrochloride] | ≥ 6.00 | – | – | – | – | – | – | – | – | increased the rate of weight gain | significantly decreased the total score
